Patent publication US20050058600A1, “3,3'-Diindolylmethane antiandrogenic compositions” (priority 2003, published 2005)
Substitutions are numbered along the chain they refer to.

How the values were obtained:
[1] = system: PSA protein; assay: Western blot of intracellular and secreted PSA in LNCaP cells; type: cell-based, human; conditions: DHT co-treatment
Protocol: Analysis of Intracellular and Secreted PSA. LNCaP cells growing on 100 mm plates were treated for 24 h. Cells were lysed as previously described (20) for intracellular PSA analysis. For secreted proteins, spent medium was collected and concentrated 18-fold using Millipore Centriprep YM-10 following manufacturer's protocol (Bedford, Mass.). Protease inhibitors were added and the proteins were immunoprecipitated with 3 μg/mL monoclonal free PSA antibody (Biodesign International) for 2 h and co-immunoprecipitated overnight at 4° C. with Protein A/G agarose (Santa Cruz Biotechnology, Santa Cruz, Calif.) on a rotator. The samples were then subjected to Western blot analysis as described previously (20) using a monoclonal PSA (sc-7316) primary antibody and a goat anti-mouse-IgG-AP secondary antibody.

[2] = system: LNCaP cells; assay: [3H]Thymidine incorporation (DNA synthesis) in LNCaP cells; type: cell-based, human; conditions: uninduced and androgen-induced (1 nM DHT) growth conditions
[3] = target: T1, AR (Homo sapiens, UniProt P10275, T878A); assay: MMTV-Luc / pPSA-Luc reporter assay in LNCaP cells; type: cell-based
T1 construct: 95 μL of either LNCaP cell extracts or recombinant AR protein; endogenous in cells; host or cells: LNCaP
T1 sequence (P10275 1-920 T878A): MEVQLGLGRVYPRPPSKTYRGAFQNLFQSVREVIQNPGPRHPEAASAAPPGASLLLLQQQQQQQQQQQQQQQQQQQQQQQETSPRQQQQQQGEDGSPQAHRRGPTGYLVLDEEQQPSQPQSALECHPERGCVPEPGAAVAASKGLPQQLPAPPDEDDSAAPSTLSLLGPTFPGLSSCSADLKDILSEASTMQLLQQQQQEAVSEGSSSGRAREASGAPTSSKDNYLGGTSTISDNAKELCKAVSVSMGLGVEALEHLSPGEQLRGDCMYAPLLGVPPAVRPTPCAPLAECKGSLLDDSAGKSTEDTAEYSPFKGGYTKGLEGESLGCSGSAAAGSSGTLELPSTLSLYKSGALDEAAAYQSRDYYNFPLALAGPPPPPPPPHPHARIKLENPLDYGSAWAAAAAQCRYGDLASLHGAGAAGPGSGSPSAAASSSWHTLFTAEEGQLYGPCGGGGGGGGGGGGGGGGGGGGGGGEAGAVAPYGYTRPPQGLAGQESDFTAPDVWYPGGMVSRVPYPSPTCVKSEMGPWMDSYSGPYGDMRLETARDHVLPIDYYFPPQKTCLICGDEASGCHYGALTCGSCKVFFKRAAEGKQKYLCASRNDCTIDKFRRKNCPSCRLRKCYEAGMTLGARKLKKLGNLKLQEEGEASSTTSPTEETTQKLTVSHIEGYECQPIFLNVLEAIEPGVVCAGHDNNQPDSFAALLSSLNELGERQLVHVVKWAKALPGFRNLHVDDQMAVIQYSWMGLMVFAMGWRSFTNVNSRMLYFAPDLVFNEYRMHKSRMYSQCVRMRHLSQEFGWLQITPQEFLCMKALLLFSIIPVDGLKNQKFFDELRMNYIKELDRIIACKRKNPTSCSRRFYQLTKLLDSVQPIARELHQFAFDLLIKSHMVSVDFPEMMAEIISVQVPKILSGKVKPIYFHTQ
Protocol: (§1) Plasmid Reporters and Expression Vectors. The ARE responsive luciferase reporter plasmid, pPSA-630 luciferase (pPSA-Luc) was prepared as previously described (29). pPSA-Luc contains the PSA promoter region (−630 to 12) with three AREs, all of which are critical to the activity of the pPSA-Luc promoter. The MMTV-Luc contains one consensus ARE and the expression vector, pCMV-hAR constitutively expresses a fully functional human androgen receptor. The pCMV-GFP-rAR was prepared as previously described (30).
(§2) Transient Transfections with Reporters and Luciferase Assay. LNCaP and PC-3 cells were transfected, with some modifications, as previously described (20). For AR transactivation, cells were transfected with 0.1 μg of MMTV-Luc or pPSA-Luc per plate. Co-transfection experiments with pCMV-hAR or pCMV-GFP-rAR, 0.1 μg per plate was also used. For experiments involving GFP fluorescence imaging, treatments were not added until 30 h after transfection.

[4] = target: T2, mutant AR of LNCaP cells (Homo sapiens, UniProt P10275, T878A); assay: Competitive [3H]DHT binding assay, LNCaP cell extracts; conditions: micromolar concentration range
T2 construct: 95 μL of either LNCaP cell extracts or recombinant AR protein; endogenous in cells; host or cells: LNCaP
T2 sequence (P10275 1-920 T878A): T1 sequence (P10275 1-920 T878A)
Protocol: Hormone Binding Assay. LNCaP cells were grown in 5% DCC-FBS-DMEM medium supplemented with 4.0 g/L glucose and 3.7 g/L sodium bicarbonate and harvested in HBS containing 1.5 mM EDTA by scraping with a rubber policeman. The cells were placed on ice, collected by centrifugation, washed with ice-cold TKEG buffer (20 mM Tris-HCl pH 7.4, 50 mM KCl, 1 mM EDTA, 0.1 mM PMSF, and 10% glycerol) and resuspended in 250 μL/plate homogenization buffer (50 mM Tris-HCl pH 7.4, 1.5 mM EDTA, 10 mM sodium molybdate, 2.5 mM β-mercaptoethanol, 50 mM KCl, 0.1 mM PMSF, and 10% glycerol). Cells were homogenized using a Polytron apparatus at medium speed for 1 min on ice. The homogenates were centrifuged at 50,000 rpm in 4° C. for 60 min. The supernatant solution was divided into 1.0 mL aliquots, quickly frozen in a dry-ice/ethanol bath and stored at −80° C. Protein concentration was determined by the Bradford assay using bovine serum albumin as the standard. […] Competitive ligands were added as 1.0 μL of 100× solution in DMSO. After mixing, 95 μL of either LNCaP cell extracts or recombinant AR protein (PanVera, Madison, Wis.) was added and the solutions were vortexed and incubated at room temperature for 2-3 h. […]

[5] = target: T3, AR (Homo sapiens, UniProt P10275); assay: pPSA-Luc / MMTV-Luc reporter assay in PC-3 cells with or without AR expression vector; type: cell-based; conditions: PC-3 co-transfected with AR expression vector; pPSA-Luc, same with MMTV-Luc
T3 construct: expressed in transfected cells; host or cells: PC-3
T3 sequence (P10275 1-920): T1 sequence (P10275 1-920 T878A) with A878T
Protocol: as §1, §2

[6] = system: AR; assay: as above; type: cell-based, human
Protocol: as §1, §2

inhibition at 1 µM ([3]; read-out: inhibition of DHT induction of androgen-responsive genes, 1 μM, both MMTV-Luc and pPSA-Luc): > 50% | inhibition at 10 µM ([3]; read-out: inhibition of DHT induction of androgen-responsive genes, 10 μM, both MMTV-Luc and pPSA-Luc): > 90% | transactivation of reporter genes by compound alone ([3]; without DHT): failed to induce transactivation | inhibition of DHT-induced transactivation [5]: concentration-dependent inhibition
Structure (SMILES): c1ccc2c(Cc3c[nH]c4ccccc34)c[nH]c2c1 [DIM, 3,3′-diindolylmethane]
levels of intracellular and secreted PSA protein [1]: reduced levels of intracellular and secreted PSA protein to background concentrations | inhibition of DNA synthesis [2]: up to 90% | competition with labeled DHT for binding to the AR [4]: competes with labeled DHT for binding to the AR | effect on pPSA-Luc reporter ([6]; PC-3 without co-transfection of an AR expression vector): has no effect | transactivation of reporter genes by compound alone ([6]; either cell line, with or without co-transfection of wild-type AR): did not induce transactivation
